According to US20170119020A1, “METHOD OF FEEDING AN ANIMAL” (CARGILL, INCORPORATED, priority 2014, published 2017):

Assays:
[1] = tested on: eggs and hatched chickens of Cobb broiler breeders; experiment: Hatchability, fertility and chick quality of eggs of Example 1 (Example 2); assay type: in vivo, chicken
Procedure: The eggs were stored based on breeder pen and storage day. Eggs were allocated to twelve trays and nine blocks, with each block representing a storage day. At E17, all eggs were candled and at E18, eggs were transferred from the incubator […] to […] baskets. […] (64.4° F.) and a relative humidity of 75%. At the start of the incubation period, the eggs were weighed and allocated into blocks, each block representing a storage day. Each block consisted of twelve experimental units, with each experimental unit indicating a group of ten eggs. Only intact eggs were included; cracked, dirty, or eggs with deformed shells were excluded from the experiment. The eggs were placed in a NatureForm NMC 2340 Incubator with automatic control of temperature and relative humidity. From E0 until E18, the eggs were placed in setter trolleys, which consist of two shelves with a capacity for thirteen trays each. Each tray has three flats of thirty eggs. During this period, the incubator start temperature was set to 37.5° C. and relative humidity to 54%. […] After the setter period (E0-E18), eggs were transferred to baskets in the […] based on the blocking structure in the setter. The eggs were placed into subdivisions of a hatching crate, per replicate, and following tray order per block. Each […] trolley has twelve baskets with a capacity for 180 eggs each. […] Egg weights were recorded per experimental unit at E0. At hatch (E21) the number of dead chickens, dead embryos and […] (internal and external) were recorded. Remaining non-hatched eggs were opened to determine age and cause of death. The number of hatched chickens was recorded per replicate, as well as average chick weight. Sex was determined by cloaca sexing, performed by a professional chicken-sexer. Hatchability was calculated as percentage of total and of fertile eggs (eggs which contained living embryos after E17). […] Only chickens with an average body weight, completely dry, showing active movement and with a good navel score were selected. […] Sample chickens were individually weighed and killed by cervical dislocation to measure remaining yolk-sac weights, yolk-free body mass (“YFBM”), chick length, and shank length of both shanks. Relative asymmetry was calculated according to the following formula: RA=(|L-R|/[(L+R)/2])×100.

[2] = tested on: livers of Ross 308 chicks; experiment: Chick liver SOD and GSSG analysis, OXISELECT kits (Example 5); assay type: in vivo, chicken; conditions: breeder diet
Procedure: Group egg weights were recorded at E0. At E7 and E18, all eggs were candled and empty eggs or eggs containing dead embryos were removed (early dead E0-E7, mid dead E8-E18). At E18 eggs were transferred to the hatching baskets after candling. At hatch (E21) the number of dead chickens, late dead embryos (E19-E21) and pipped eggs were recorded. The number of hatched chickens was recorded per replicate, as well as average chick weight. Hatchability was calculated as percentage of total eggs set. Sex was determined by feather sexing, female chickens were euthanized by CO2 and disposed according to local regulations. Per experimental unit, five male chickens were selected for the grow-out period and allocated to broiler grower pens. Only chickens with an average body weight, completely dry, showing active movement and with a good navel score were selected. After this selection one male chicken per experimental unit was selected for dissection. Sample chickens were individually weighed and killed by cervical dislocation to measure remaining yolk-sac weights, yolk-free body mass (“YFBM”), liver weight, chick length, and shank length of both shanks. The livers were immediately placed on dry ice and after dissection stored at −20° C. for further analysis (“SOD and GSSG”). Relative asymmetry was calculated according to the following formula: […]
Furthermore, no treatment effects were found on several chick quality parameters (YFBM, chick length, and relative asymmetry). OXISELECT Superoxide Dismutase Activity Assay (“SOD”) and OXISELECT Total Glutathione (GSSG/GSH) Assay (“GSSG”) kits, available commercially from Cell Biolabs, Inc., San Diego, Calif., USA, were used to analyze chick livers.

[3] = tested on: sows and piglets; experiment: Content of vitamins E and A in serum of sows and piglets, HPLC (Example 10); assay type: in vivo, pig; conditions: for Vitamin A in serum of piglets / Vitamin E in serum of piglets: piglets at 21 days
Text: The performance following criteria were monitored during the trial: (i) Sows response criteria (actual parity, farrowing rate, culled sows—number and reasons, wean-to-mating interval, farrowing rate in the next cycle); (ii) litter response criteria (number of piglets, total, alive, stillborn, mummies; weight of piglets and litters; survival). The following biochemical (blood) criteria were monitored during the trial for the sows (mating, farrowing and weaning), piglets 21st day: (i) glutathione peroxidase (GPx) activity; (ii) superoxide dismutase (SOD) activity; (iii) total antioxidant status (TAS); (iv) vitamin E content; (v) vitamin A content.
To determine the oxidative status, the blood samples were collected from sows and piglets into tubes with lithium anticoagulant—received whole blood for analysis. At the same time blood samples were taken for blood clot. They were centrifuged (1500 rpm, 15 Temp. 4° C.) and obtained serum was pipetted into separate tubes.
The content of the TAS (total antioxidant status) were determined using the Antioxidant assay kit (Cat. No CS0790), the activity of SOD (superoxide dismutase) was determined using SOD determination kit 19160, the activity of GPx (glutathione Peroxide assai Cellular Activity Kit) Cat. No CGP1. The content of vitamins A and E by McMurray and Blanchflower 1979 (Journal of Chromatography 178, 525-531.). TAS
Serum samples (1 ml) was deproteinized with anhydrous ethanol (1 ml), extracted with 5 ml of n-hexane (Vortex 5′), then centrifuged (3000 rpm, 10′, temp. 4° C.). The resulting 4 ml of the supernatant were evaporated to dryness under nitrogen, and then dissolved in 1 ml of 96% ethanol and analyzed by high performance liquid chromatography (HPLC).
The contents of retinol and tocopherol was determined by reversed-phase high performance liquid chromatography (HPLC) with chromatograph SHIMADZU. Nucleosil C18 column is used, the carrier phase was methanol-water (95:5, v: v). The measurement was performed using a UV detector at a wavelength of 326 nm to determine the amount of retinol and a fluorescence detector (excitation wavelength—295 nm, emission wavelength—330 nM) to determine the tocopherol content. The concentration of retinol and tocopherol were calculated on the basis of the peak external standards (Sigma-Aldrich (□)-a-Tocopherol, Retinol Vitamin-A-alcohol).

[4] = eggs of 28-29 week breeders of Example 1
[5] = Breeding, Group 2: vitamin E 50/75 mg/kg diet
[6] = Breeding, Group 3: vitamin E 100/150 mg/kg diet
[7] = Farrowing, Group 2: vitamin E 50/75 mg/kg diet
[8] = Farrowing, Group 3: vitamin E 100/150 mg/kg diet
[9] = Weaning, Group 2: vitamin E 50/75 mg/kg diet
[10] = Weaning, Group 3: vitamin E 100/150 mg/kg diet
[11] = Group 2: vitamin E 50/75 mg/kg sow diet
[12] = Group 3: vitamin E 100/150 mg/kg sow diet

Cc1c(C)c2c(c(C)c1O)CCC(C)(CCCC(C)CCCC(C)CCCC(C)C)O2 (racemic) [Vitamin E, DL-α-tocopherol]
Chick Weight ([1]; at hatch): 42.4 g | Chick Weight ([1]; dissected chickens): 41.3 g | Chick length ([1]; dissected chickens): 17.9 cm | Relative Assymetrie (shank) ([1]; dissected chickens): 1.59 | YFBM (yolk free body mass) ([1]; dissected chickens): 36.2 g | Yolk weight ([1]; dissected chickens): 4.92 g | Relative Chick Weight^1 ([1]; dissected chickens, expressed as percentage of average egg weight): 70.7% | Relative Chick Weight^2 ([1]; dissected chickens, expressed as percentage of chick weight): 11.8% | Fertility [1, 4]: 92.6% | Hatchability of fertile [1, 4]: 95.6% | Hatchability of total [1, 4]: 88.6% | Relative chick weight ([1]; expressed as percentage of average egg weight): 72.5% | GSSG ([2]; vitamin E equivalence 80 ppm): 4.27 µM | SOD units ([2]; vitamin E equivalence 80 ppm): 0.776 units | GSSG ([2]; vitamin E equivalence 160 ppm): 4.48 µM | SOD units ([2]; vitamin E equivalence 160 ppm): 0.777 units | Content of Vitamin A in the serum of sows [3, 5]: 0.15 µg/mL | Content of Vitamin E in the serum of sows [3, 5]: 1.09 µg/mL | Content of Vitamin A in the serum of sows [3, 6]: 0.16 µg/mL | Content of Vitamin E in the serum of sows [3, 6]: 1.11 µg/mL | Content of Vitamin A in the serum of sows [3, 7]: 0.11 µg/mL | Content of Vitamin E in the serum of sows [3, 7]: 0.74 µg/mL | Content of Vitamin A in the serum of sows [3, 8]: 0.15 µg/mL | Content of Vitamin E in the serum of sows [3, 8]: 1.16 µg/mL | piglet serum a-tocopherol concentrations, lactation sows fed 150 mg/kg versus 75 mg/kg vitamin E ([3]; P<0.001): higher | Content of Vitamin A in the serum of sows [3, 9]: 0.15 µg/mL | Content of Vitamin E in the serum of sows [3, 9]: 1.02 µg/mL | Content of Vitamin A in the serum of sows [3, 10]: 0.15 µg/mL | Content of Vitamin E in the serum of sows [3, 10]: 1.13 µg/mL | sow serum a-tocopherol (vitamin E) concentrations when vitamin E was added to the sow diets ([3]; gestation and lactation, P<0.001): higher | Vitamin A in serum of piglets [3, 11]: 0.16 µg/mL | Vitamin E in serum of piglets [3, 11]: 1.41 µg/mL | Vitamin A in serum of piglets [3, 12]: 0.2 µg/mL | Vitamin E in serum of piglets [3, 12]: 1.61 µg/mL
